Assay [1] concerns the target T1, Alpha-1A adrenergic receptor (Homo sapiens, UniProt P35348).
T1 sequence (P35348 whole entry): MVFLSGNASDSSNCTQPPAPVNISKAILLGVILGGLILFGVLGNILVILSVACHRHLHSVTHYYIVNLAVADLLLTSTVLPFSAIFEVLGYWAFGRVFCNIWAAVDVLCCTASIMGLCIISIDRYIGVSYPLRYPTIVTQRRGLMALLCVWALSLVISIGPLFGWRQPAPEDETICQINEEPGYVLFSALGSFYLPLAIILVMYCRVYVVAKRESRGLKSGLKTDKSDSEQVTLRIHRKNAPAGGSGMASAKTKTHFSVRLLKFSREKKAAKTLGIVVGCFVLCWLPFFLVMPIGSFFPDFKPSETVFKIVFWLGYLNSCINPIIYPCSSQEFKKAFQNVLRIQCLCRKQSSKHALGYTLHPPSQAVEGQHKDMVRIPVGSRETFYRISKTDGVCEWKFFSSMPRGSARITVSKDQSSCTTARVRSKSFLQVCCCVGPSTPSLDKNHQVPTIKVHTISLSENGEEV

Assay [2] deals with Beta-2 adrenergic receptor (Homo sapiens, UniProt P07550).
Beta-2 adrenergic receptor, sequence (P07550 whole entry): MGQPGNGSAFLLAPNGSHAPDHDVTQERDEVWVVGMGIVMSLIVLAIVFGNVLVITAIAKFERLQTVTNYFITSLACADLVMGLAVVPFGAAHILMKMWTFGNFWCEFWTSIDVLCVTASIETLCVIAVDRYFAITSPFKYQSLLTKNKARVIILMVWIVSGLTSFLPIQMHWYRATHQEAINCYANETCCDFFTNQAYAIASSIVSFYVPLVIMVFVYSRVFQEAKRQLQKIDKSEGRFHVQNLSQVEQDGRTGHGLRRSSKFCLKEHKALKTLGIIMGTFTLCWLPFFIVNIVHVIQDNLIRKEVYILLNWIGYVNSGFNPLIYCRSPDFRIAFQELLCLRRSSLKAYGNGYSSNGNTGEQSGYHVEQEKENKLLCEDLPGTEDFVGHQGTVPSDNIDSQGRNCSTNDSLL
In another assay the target is Histamine H3 receptor (Homo sapiens, UniProt Q9Y5N1).
Histamine H3 receptor, sequence (Q9Y5N1 whole entry): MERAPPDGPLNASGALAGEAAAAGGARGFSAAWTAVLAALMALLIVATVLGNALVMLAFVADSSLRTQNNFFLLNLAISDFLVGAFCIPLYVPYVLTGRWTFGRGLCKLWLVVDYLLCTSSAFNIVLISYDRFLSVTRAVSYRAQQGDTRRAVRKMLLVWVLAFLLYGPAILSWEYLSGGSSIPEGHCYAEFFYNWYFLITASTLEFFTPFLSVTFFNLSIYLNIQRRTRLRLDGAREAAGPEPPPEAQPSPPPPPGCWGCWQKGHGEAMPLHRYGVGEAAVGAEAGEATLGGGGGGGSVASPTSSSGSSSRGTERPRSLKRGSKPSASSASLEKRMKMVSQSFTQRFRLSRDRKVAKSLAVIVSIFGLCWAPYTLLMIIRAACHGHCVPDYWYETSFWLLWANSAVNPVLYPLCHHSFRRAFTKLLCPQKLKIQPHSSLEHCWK
The target in another assay is T2, Endothelin-1 receptor (Homo sapiens, UniProt P25101).
T2 sequence (P25101 whole entry): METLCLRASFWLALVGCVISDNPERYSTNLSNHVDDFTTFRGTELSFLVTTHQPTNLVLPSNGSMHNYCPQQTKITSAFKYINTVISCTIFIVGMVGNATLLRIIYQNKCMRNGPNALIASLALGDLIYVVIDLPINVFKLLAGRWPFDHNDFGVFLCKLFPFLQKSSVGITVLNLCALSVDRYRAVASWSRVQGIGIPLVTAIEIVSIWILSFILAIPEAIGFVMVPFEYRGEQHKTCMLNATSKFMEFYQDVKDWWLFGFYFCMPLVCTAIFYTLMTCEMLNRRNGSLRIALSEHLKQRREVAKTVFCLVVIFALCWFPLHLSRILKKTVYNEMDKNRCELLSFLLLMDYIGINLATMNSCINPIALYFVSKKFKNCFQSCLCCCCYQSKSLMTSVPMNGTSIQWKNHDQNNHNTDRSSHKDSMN

The target of assay [3] is T3, Muscarinic acetylcholine receptor M1 (Homo sapiens, UniProt P11229).
T3 sequence (P11229 whole entry): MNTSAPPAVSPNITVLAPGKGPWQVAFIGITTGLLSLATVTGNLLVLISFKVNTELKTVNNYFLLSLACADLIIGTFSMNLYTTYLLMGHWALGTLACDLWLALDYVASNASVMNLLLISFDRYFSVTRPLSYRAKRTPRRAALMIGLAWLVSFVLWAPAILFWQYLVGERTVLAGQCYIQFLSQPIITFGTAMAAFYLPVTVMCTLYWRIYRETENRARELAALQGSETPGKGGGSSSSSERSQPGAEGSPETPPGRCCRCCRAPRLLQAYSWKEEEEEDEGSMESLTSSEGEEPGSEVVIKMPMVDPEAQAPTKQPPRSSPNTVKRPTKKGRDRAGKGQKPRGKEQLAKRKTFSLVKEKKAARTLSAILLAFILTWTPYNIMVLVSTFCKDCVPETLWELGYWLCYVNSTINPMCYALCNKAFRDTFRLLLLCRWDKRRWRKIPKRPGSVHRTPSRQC
The assay is classed as functional.

A further assay deals with T4, Androgen receptor (Rattus norvegicus, UniProt P15207).
T4 sequence (P15207 whole entry): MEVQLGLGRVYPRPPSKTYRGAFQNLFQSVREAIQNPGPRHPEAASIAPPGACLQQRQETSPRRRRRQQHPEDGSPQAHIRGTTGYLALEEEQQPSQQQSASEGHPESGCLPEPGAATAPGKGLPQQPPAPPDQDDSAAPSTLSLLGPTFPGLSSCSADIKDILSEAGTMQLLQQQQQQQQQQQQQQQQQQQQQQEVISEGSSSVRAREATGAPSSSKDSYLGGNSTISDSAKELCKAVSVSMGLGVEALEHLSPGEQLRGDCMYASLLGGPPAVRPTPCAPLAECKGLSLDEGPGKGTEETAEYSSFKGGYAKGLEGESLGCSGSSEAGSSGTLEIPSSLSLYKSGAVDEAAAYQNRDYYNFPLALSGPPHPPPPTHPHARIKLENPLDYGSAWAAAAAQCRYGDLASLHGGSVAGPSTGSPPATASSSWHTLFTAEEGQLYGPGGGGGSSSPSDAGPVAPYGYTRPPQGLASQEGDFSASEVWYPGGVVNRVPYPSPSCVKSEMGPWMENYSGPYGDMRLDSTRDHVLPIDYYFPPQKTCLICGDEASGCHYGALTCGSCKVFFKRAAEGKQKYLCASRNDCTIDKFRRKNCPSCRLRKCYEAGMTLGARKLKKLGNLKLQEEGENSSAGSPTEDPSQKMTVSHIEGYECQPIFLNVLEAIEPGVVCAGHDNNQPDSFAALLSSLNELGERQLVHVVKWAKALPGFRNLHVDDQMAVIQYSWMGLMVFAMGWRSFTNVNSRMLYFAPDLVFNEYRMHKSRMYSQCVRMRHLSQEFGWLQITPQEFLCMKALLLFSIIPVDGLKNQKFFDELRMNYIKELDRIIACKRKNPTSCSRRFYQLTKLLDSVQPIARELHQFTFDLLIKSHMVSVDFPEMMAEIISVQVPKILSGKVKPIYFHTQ

Assay [4] addresses Voltage-dependent N-type calcium channel subunit alpha-1B (Rattus norvegicus, UniProt Q02294). The assay is classed as functional.
Assay [5] addresses Beta-3 adrenergic receptor (Homo sapiens, UniProt P13945).

Results on 19 compounds are retold here after ChEMBL document CHEMBL5291721, “A preclinical secondary pharmacology resource illuminates target-adverse drug reaction associations of marketed drugs” (Nat Commun, 2023).
Also: assay procedure not described here.

Voltage-dependent N-type calcium channel subunit alpha-1B, sequence (Q02294 whole entry): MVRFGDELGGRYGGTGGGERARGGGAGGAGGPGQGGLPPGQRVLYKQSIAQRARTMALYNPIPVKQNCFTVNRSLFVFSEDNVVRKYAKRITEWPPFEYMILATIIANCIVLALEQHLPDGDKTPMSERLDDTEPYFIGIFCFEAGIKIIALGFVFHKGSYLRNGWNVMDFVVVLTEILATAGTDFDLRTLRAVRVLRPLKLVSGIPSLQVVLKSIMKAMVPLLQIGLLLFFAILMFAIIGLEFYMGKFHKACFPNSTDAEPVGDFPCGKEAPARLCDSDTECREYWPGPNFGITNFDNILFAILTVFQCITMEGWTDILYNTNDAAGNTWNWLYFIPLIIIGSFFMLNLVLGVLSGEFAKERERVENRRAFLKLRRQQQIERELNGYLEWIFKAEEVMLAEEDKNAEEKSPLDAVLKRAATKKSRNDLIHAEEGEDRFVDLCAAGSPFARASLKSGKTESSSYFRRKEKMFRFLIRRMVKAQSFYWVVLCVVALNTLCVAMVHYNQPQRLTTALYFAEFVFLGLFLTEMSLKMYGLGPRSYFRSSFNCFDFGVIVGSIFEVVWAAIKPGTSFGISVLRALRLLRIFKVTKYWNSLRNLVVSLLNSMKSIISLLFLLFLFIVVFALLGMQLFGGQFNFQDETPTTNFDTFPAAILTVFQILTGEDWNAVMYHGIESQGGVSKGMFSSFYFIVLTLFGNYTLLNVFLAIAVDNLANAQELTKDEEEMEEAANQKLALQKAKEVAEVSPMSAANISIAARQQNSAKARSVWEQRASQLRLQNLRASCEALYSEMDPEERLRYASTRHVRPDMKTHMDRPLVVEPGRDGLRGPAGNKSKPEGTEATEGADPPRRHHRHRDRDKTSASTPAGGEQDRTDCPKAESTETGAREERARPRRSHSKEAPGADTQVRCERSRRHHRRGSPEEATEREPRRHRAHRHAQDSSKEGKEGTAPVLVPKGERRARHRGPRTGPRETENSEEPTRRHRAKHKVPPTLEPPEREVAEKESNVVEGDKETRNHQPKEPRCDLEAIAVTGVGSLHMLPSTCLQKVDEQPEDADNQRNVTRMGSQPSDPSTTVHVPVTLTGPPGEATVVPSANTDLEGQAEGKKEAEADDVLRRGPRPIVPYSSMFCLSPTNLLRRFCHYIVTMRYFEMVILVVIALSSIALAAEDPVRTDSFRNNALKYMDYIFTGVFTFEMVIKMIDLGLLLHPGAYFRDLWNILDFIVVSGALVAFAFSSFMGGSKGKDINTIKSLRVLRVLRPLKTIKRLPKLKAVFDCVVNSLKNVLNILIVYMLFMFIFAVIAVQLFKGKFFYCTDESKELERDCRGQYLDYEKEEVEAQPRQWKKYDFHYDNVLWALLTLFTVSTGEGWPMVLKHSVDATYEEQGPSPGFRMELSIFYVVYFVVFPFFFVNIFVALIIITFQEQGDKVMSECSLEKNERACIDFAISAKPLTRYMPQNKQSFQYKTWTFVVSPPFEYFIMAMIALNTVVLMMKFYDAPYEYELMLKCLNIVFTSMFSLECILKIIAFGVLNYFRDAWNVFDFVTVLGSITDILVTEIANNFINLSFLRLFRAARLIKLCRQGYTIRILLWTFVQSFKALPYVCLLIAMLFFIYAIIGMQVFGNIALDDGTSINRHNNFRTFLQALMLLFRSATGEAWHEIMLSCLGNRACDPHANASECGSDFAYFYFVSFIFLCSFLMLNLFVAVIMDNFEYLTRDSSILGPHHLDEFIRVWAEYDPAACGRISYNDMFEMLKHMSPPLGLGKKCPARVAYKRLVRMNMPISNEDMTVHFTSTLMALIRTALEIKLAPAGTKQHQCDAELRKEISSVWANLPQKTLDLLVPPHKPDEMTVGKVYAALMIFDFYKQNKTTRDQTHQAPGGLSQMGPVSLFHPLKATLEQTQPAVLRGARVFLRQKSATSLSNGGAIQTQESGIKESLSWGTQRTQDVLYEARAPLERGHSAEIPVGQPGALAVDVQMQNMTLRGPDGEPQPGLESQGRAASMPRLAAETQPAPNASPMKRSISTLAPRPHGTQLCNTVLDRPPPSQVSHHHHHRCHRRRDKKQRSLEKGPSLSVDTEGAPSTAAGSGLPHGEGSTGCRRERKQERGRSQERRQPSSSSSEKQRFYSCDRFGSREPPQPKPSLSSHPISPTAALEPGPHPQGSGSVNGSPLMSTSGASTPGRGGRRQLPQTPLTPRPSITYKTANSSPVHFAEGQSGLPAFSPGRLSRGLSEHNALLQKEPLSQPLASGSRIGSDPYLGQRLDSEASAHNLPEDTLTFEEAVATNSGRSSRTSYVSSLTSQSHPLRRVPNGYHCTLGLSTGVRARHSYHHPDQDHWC
Beta-3 adrenergic receptor, sequence (P13945 whole entry): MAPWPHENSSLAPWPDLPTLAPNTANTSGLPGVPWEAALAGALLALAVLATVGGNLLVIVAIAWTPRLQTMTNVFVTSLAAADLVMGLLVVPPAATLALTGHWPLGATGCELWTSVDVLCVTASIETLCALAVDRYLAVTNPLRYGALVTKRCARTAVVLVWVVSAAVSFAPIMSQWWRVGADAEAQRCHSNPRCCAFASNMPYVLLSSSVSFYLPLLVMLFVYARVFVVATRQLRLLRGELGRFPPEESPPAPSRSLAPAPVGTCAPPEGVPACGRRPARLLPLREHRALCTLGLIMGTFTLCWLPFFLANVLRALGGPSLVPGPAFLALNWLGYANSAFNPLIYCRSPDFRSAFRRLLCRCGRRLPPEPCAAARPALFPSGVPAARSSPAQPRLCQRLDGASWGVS

Take `O=C1C(O)=C([C@H]2CC[C@H](c3ccc(Cl)cc3)CC2)C(=O)c2ccccc21` [ATOVAQUONE]: the concentration at half-maximal activity (AC50) (in assay [1]; in assay [2]; at Histamine H3 receptor; at Endothelin-1 receptor; in assay [3]) was > 30 µM each time.

For the compound `COc1ccc(CCNCC(O)COc2cccc(C)c2)cc1OC` (stereo not drawn) [BEVANTOLOL], the AC50 in assay [1] was 1.2 µM; on Androgen receptor it was > 10 µM; in assay [3], > 10 µM.

As for `Brc1c(NC2=NCCN2)ccc2nccnc12` [BRIMONIDINE], the AC50 at Histamine H3 receptor and on Endothelin-1 receptor was > 30 µM each time.

As to `CC(CC1c2ccccc2CCc2ccccc21)CN(C)C` (stereo not drawn) [BUTRIPTYLINE], the activity in assay [3] was half-maximal at 0.23 µM (AC50).

Take `CC(C)(C)NCC(O)COc1cccc2c1CCC(=O)N2` (stereo not drawn) [CARTEOLOL]: the AC50 (in assay [1]; at Androgen receptor; in assay [3]) was > 10 µM each time.

In the case of `Nc1nc(Cl)nc2c1ncn2[C@H]1C[C@H](O)[C@@H](CO)O1` [CLADRIBINE], the half-maximal activity concentration (AC50) at Histamine H3 receptor and at Endothelin-1 receptor was > 30 µM each time.

For the compound `Clc1ccccc1C(c1ccccc1)(c1ccccc1)n1ccnc1` [CLOTRIMAZOLE], the AC50 is > 10 µM in assay [4]; > 10 µM in assay [1]; 15 µM in assay [2]; > 10 µM at Histamine H3 receptor; 8.78 µM in assay [5].

With `COc1ccc2c3c1O[C@H]1[C@@H](O)CC[C@H]4[C@@H](C2)N(C)CC[C@@]341` [DIHYDROCODEINE], the concentration at half-maximal activity (AC50) in assay [3] is > 30 µM.

In the case of `NC(=O)OCC(COC(N)=O)c1ccccc1` [FELBAMATE], the concentration at half-maximal activity (AC50) (in assay [1]; on Androgen receptor; in assay [2]; in assay [3]) was > 10 µM throughout.

Turning to `Fc1ccc(C(c2ccccc2)(c2ccccc2F)n2ccnc2)cc1` (stereo not drawn) [FLUTRIMAZOLE], the AC50 (in assay [2]; on Histamine H3 receptor; on Endothelin-1 receptor; in assay [3]) was > 30 µM throughout.

As to `Cc1c(OCC(F)(F)F)ccnc1C[S+]([O-])c1nc2ccccc2[nH]1` (stereo not drawn) [LANSOPRAZOLE], the AC50 is > 10 µM in assay [4]; > 10 µM in assay [1]; > 10 µM in assay [2]; > 30 µM on Endothelin-1 receptor; > 30 µM in assay [5].

`NC(=O)CN1CC(O)CC1=O` (stereo not drawn) [OXIRACETAM]: the AC50 (in assay [1]; at Histamine H3 receptor; on Endothelin-1 receptor; in assay [3]) was > 30 µM in each case.

Consider `C[C@H]1COc2c(C3(N)CC3)c(F)cc3c(=O)c(C(=O)O)cn1c23` [PAZUFLOXACIN], for which the AC50 in assay [1], in assay [2] and in assay [3] was > 10 µM in each case.

Regarding `C[C@@H]1O[C@@H](O[C@@H]2C=C3CC[C@@H]4[C@H](CC[C@]5(C)[C@@H](c6ccc(=O)oc6)CC[C@]45O)[C@@]3(C)CC2)[C@H](O)[C@H](O)[C@H]1O` [PROSCILLARIDIN], the AC50 at Histamine H3 receptor and on Endothelin-1 receptor was > 30 µM throughout.

With `CC/C(=C(\c1ccccc1)c1ccc(OCCN(C)C)cc1)c1ccccc1` [TAMOXIFEN], the AC50 in assay [4] was > 10 µM; in assay [1], > 10 µM; in assay [2], 13.6 µM; on Histamine H3 receptor, > 30 µM; in assay [5], 6.61 µM.

`C#C[C@]1(O)CC[C@H]2[C@@H]3[C@H](C)CC4=C(CCC(=O)C4)[C@H]3CC[C@@]21C` [TIBOLONE]: the AC50 on Histamine H3 receptor and on Endothelin-1 receptor was > 30 µM in each case.

Regarding `COc1cccc(C2(O)CCCCC2CN(C)C)c1` (stereo not drawn) [TRAMADOL], the AC50 in assay [4] was > 10 µM; in assay [1] it was > 10 µM; on Androgen receptor, > 30 µM; in assay [2], > 10 µM; at Histamine H3 receptor it was > 10 µM; at Endothelin-1 receptor, > 30 µM. Besides, the concentration at half-maximal activity (AC50) in assay [5] is > 30 µM.

For `Cc1nnc2n1-c1ccc(Cl)cc1C(c1ccccc1Cl)=NC2` [TRIAZOLAM], the AC50 (in assay [1]; in assay [2]; at Histamine H3 receptor; in assay [3]) was > 10 µM each time.

As to `CC1(C)CCC(CN2CCN(c3ccc(C(=O)NS(=O)(=O)c4ccc(NCC5CCOCC5)c([N+](=O)[O-])c4)c(Oc4cnc5[nH]ccc5c4)c3)CC2)=C(c2ccc(Cl)cc2)C1` [VENETOCLAX], the AC50 in assay [3] was > 30 µM.

A word on the AC50: it is the midpoint of the concentration-response curve, whichever way the signal moves.
